According to US8012956B2, “Tropane compounds” (Exelixis, Inc., priority 2007, dated 2011):

Target: HSP90 (Homo sapiens, UniProt P07900)
Assay: HSP90 inhibition (HSP90 IC50)
Format: biochemical

Row | IC50 [nM] | SMILES
1 | 500 to 999 | COc1cccc(C(=O)N[C@H]2C[C@H]3CC[C@@H](C2)N3c2ccc(C(=O)NCc3c(F)ccc(F)c3F)cn2)c1C [6-[3-endo-({[2-methyl-3-(methyloxy)phenyl]carbonyl}amino)-8-azabicyclo[3.2.1]oct-8-yl]-N-[(2,3,6-trifluorophenyl)methyl]pyridine-3-carboxamide]
2 | < 500 | COc1ccc(Nc2cc(C(=O)N[C@H]3C[C@H]4CC[C@@H](C3)N4c3ccc(C(=O)NC4CCCC4)cn3)ccc2C(N)=O)cc1OCCN(C)C
3 | < 500 | CN1CCC(CCC(=O)c2ccc(N3[C@@H]4CC[C@H]3C[C@@H](NC(=O)c3ccc(C(N)=O)c(NCC5CC5)c3)C4)nc2)CC1 [2-[(cyclopropylmethyl)amino]-N4-(8-{5-[3-(1-methylpiperidin-4-yl)propanoyl]pyridin-2-yl}-8-azabicyclo[3.2.1]oct-3-endo-yl)benzene-1,4-dicarboxamide]
4 | < 500 | CC[C@@H](C)Nc1cc(C(=O)NC2CC3CCC(C2)N3c2ccc(C(=O)C3CC3)cn2)c(OC)cc1C(N)=O (stereo partly drawn) [N-{8-[5-(cyclopropylcarbonyl)pyridin-2-yl]-8-azabicyclo[3.2.1]oct-3-endo-yl}-2-(methyloxy)-5-{[(1R)-1-methylpropyl]amino}benzene-1,4-dicarboxamide]
5 | < 500 | CCc1cc(C(=O)N[C@H]2C[C@H]3CC[C@@H](C2)N3c2ccc(C(=O)C3CC3)cn2)c(C)cc1C(N)=O [N-{8-[5-(cyclopropylcarbonyl)pyridin-2-yl]-8-azabicyclo[3.2.1]oct-3-endo-yl}-5-ethyl-2-methylbenzene-1,4-dicarboxamide]
6 | < 500 | CC[C@H](C)Nc1cc(C(=O)NC2CC3CCC(C2)N3c2ccc(C(=O)C3CC3)cn2)ccc1C(N)=O (stereo partly drawn) [N4-{8-[5-(cyclopropylcarbonyl)pyridin-2-yl]-8-azabicyclo[3.2.1]oct-3-endo-yl}-2-{[(1S)-1-methylpropyl]amino}benzene-1,4-dicarboxamide]
7 | 1000 to 2000 | CON(C)C(=O)c1ccc(N2[C@@H]3CC[C@H]2C[C@@H](NC(=O)c2ccc(C(N)=O)c(NCC4CC4)c2)C3)nc1 [2-[(cyclopropylmethyl)amino]-N4-[8-(5-{[methyl(methyloxy)amino]carbonyl}pyridin-2-yl)-8-azabicyclo[3.2.1]oct-3-endo-yl]benzene-1,4-dicarboxamide]
8 | 2000 to 10000 | COc1cccc(C(=O)N[C@H]2C[C@H]3CC[C@@H](C2)N3c2ccc(C(N)=O)cn2)c1Cl [6-[3-endo-({[2-chloro-3-(methyloxy)phenyl]carbonyl}amino)-8-azabicyclo[3.2.1]oct-8-yl]pyridine-3-carboxamide]
9 | 500 to 999 | CSc1cccc(C(=O)NC2CC3CCC(C2)N3c2ccc(C(=O)N[C@@H](C)c3ccc(N4CCN(C)CC4)cc3)cn2)c1C (stereo partly drawn) [6-[3-endo-({[2-methyl-3-(methylthio)phenyl]carbonyl}amino)-8-azabicyclo[3.2.1]oct-8-yl]-N-{(1S)-1-[4-(4-methylpiperazin-1-yl)phenyl]ethyl}pyridine-3-carboxamide]
10 | 2000 to 10000 | COc1cccc(C(=O)N[C@H]2C[C@H]3CC[C@@H](C2)N3c2ccc(C(N)=O)cn2)c1F [6-[3-endo-({[2-fluoro-3-(methyloxy)phenyl]carbonyl}amino)-8-azabicyclo[3.2.1]oct-8-yl]pyridine-3-carboxamide]
11 | < 500 | O=C(NCc1ccccc1)c1ccc(N2[C@@H]3CC[C@H]2C[C@@H](NC(=O)c2ccc(CO)cc2)C3)nc1 [6-[3-endo-({[4-(hydroxymethyl)phenyl]carbonyl}amino)-8-azabicyclo[3.2.1]oct-8-yl]-N-(phenylmethyl)pyridine-3-carboxamide]
12 | 2000 to 10000 | COc1cccc(C(=O)N[C@H]2C[C@H]3CC[C@@H](C2)N3c2ccc(C(=O)NCCC(C)(C)C)cn2)c1C [N-(3,3-dimethylbutyl)-6-[3-endo-({[2-methyl-3-(methyloxy)phenyl]carbonyl}amino)-8-azabicyclo[3.2.1]oct-8-yl]pyridine-3-carboxamide]
13 | < 500 | CC(=O)c1ccc(N2C3CCC2CC(NC(=O)c2cc(N[C@H]4CC[C@H](O)CC4)c(C(N)=O)cc2C)C3)nc1 (stereo partly drawn) [N-[8-(5-acetylpyridin-2-yl)-8-azabicyclo[3.2.1]oct-3-endo-yl]-5-[(trans-4-hydroxycyclohexyl)amino]-2-methylbenzene-1,4-dicarboxamide]
14 | < 500 | COc1cccc(C(=O)N[C@H]2C[C@H]3CC[C@@H](C2)N3c2ccc(C(=O)NCc3ccc(Cl)nc3)cn2)c1C [N-[(6-chloropyridin-3-yl)methyl]-6-[3-endo-({[2-methyl-3-(methyloxy)phenyl]carbonyl}amino)-8-azabicycio[3.2.1]oct-8-yl]pyridine-3-carboxamide]
15 | 1000 to 2000 | COC[C@H](C)NC(=O)c1ccc(N2C3CCC2CC(NC(=O)c2cccc(OC)c2C)C3)nc1 (stereo partly drawn) [N-[(1S)-1-methyl-2-(methyloxy)ethyl]-6-[3-endo-({[2-methyl-3-(methyloxy)phenyl]carbonyl}amino)-8-azabicyclo[3.2.1]oct-8-yl]pyridine-3-carboxamide]
16 | 2000 to 10000 | COc1cccc(NC(=O)c2ccc(N3[C@@H]4CC[C@H]3C[C@@H](NC(=O)c3cccc(OC)c3C)C4)nc2)c1 [6-[3-endo-({[2-methyl-3-(methyloxy)phenyl]carbonyl}amino)-8-azabicyclo[3.2.1]oct-8-yl]-N-[3-(methyloxy)phenyl]pyridine-3-carboxamide]
17 | 500 to 999 | COc1cccc(C(=O)NC2CC3CCC(C2)N3c2ccc(C(=O)NCCC3CCCN3C)cn2)c1C (stereo not drawn) [6-[3-endo-({[2-methyl-3-(methyloxy)phenyl]carbonyl}amino)-8-azabicyclo[3.2.1]oct-8-yl]-N-[2-(1-methylpyrrolidin-2-yl)ethyl]pyridine-3-carboxamide]
18 | < 500 | Cc1cc(C(N)=O)c(N[C@H](C)C(C)(C)C)cc1C(=O)NC1CC2CCC(C1)N2c1ccc(C(=O)C2CC2)cn1 (stereo partly drawn) [N-{8-[5-(cyclopropylcarbonyl)pyridin-2-yl]-8-azabicyclo[3.2.1]oct-3-endo-yl}-2-methyl-5-{[(1R)-1,2,2-trimethylpropyl]amino}benzene-1,4-dicarboxamide]
19 | < 500 | COc1cccc(C(=O)N[C@H]2C[C@H]3CC[C@@H](C2)N3c2ccc(C(=O)NCc3c(F)cccc3F)cn2)c1C [N-[(2,6-difluorophenyl)methyl]-6-[3-endo-({[2-methyl-3-(methyloxy)phenyl]carbonyl}amino)-8-azabicyclo[3.2.1]oct-8-yl]pyridine-3-carboxamide]
20 | < 500 | NC(=O)c1ccc(N2[C@@H]3CC[C@H]2C[C@@H](NC(=O)c2ccc(C(N)=O)c(NC4CCC4)c2)C3)nc1 [N4-{8-[5-(aminocarbonyl)pyridin-2-yl]-8-azabicyclo[3.2.1]oct-3-endo-yl}-2-(cyclobutylamino)benzene-1,4-dicarboxamide]
21 | 500 to 999 | CCNC(=O)c1ccc(N2[C@@H]3CC[C@H]2C[C@@H](NC(=O)c2cccc(OC)c2C)C3)nc1 [N-ethyl-6-[3-endo-({[2-methyl-3-(methyloxy)phenyl]carbonyl}amino)-8-azabicyclo[3.2.1]oct-8-yl]pyridine-3-carboxamide]
22 | < 500 | COc1cccc(C(=O)N[C@H]2C[C@H]3CC[C@@H](C2)N3c2ccc(C(=O)Nc3ccc(N4CCN(C)CC4)cc3)cn2)c1C [6-[3-endo-({[2-methyl-3-(methyloxy)phenyl]carbonyl}amino)-8-azabicyclo[3.2.1]oct-8-yl]-N-[4-(4-methylpiperazin-1-yl)phenyl]pyridine-3-carboxamide]
23 | < 500 | CS(=O)(=O)CCNc1cc(C(=O)N[C@H]2C[C@H]3CC[C@@H](C2)N3c2ccc(C(N)=O)cn2)ccc1C(N)=O [N4-{8-[5-(aminocarbonyl)pyridin-2-yl]-8-azabicyclo[3.2.1]oct-3-endo-yl}-2-{[2-(methylsulfonyl)ethyl]amino}benzene-1,4-dicarboxamide]
24 | < 500 | CC(=O)c1ccc(N2[C@@H]3CC[C@H]2C[C@@H](NC(=O)c2ccc(C(N)=O)c(NCC4CC4)c2)C3)nc1 [N4-[8-(5-acetylpyridin-2-yl)-8-azabicyclo[3.2.1]oct-3-endo-yl]-2-[(cyclopropylmethyl)amino]benzene-1,4-dicarboxamide]
25 | < 500 | NC(=O)c1cc(Br)c(C(=O)N[C@H]2C[C@H]3CC[C@@H](C2)N3c2ccc(C(=O)C3CC3)cn2)cc1N [5-amino-2-bromo-N-{8-[5-(cyclopropylcarbonyl)pyridin-2-yl]-8-azabicyclo[3.2.1]oct-3-endo-yl}benzene-1,4-dicarboxamide]
26 | 1000 to 2000 | COc1cccc(C(=O)N[C@H]2C[C@H]3CC[C@@H](C2)N3c2ccc(C(=O)Nc3ccc(C4CCN(C)CC4)cc3)cn2)c1C [6-[3-endo-({[2-methyl-3-(methyloxy)phenyl]carbonyl}amino)-8-azabicyclo[3.2.1]oct-8-yl]-N-[4-(1-methylpiperidin-4-yl)phenyl]pyridine-3-carboxamide]
27 | < 500 | COc1ccc(CNC(=O)c2ccc(N3[C@@H]4CC[C@H]3C[C@@H](NC(=O)c3cccc(OC)c3C)C4)nc2)cc1 [6-[3-endo-({[2-methyl-3-(methyloxy)phenyl]carbonyl}amino)-8-azabicyclo[3.2.1]oct-8-yl]-N-{[4-(methyloxy)phenyl]methyl}pyridine-3-carboxamide]
28 | < 500 | Cc1cc(C(N)=O)c(N[C@H](C)C(C)C)cc1C(=O)NC1CC2CCC(C1)N2c1ccc(C(=O)C2CC2)cn1 (stereo partly drawn) [N-{8-[5-(cyclopropylcarbonyl)pyridin-2-yl]-8-azabicyclo[3.2.1]oct-3-endo-yl}-5-{[(1R)-1,2-dimethylpropyl]amino}-2-methylbenzene-1,4-dicarboxamide]
29 | 500 to 999 | COc1cccc(C(=O)N[C@H]2C[C@H]3CC[C@@H](C2)N3c2ccc(C(=O)NCc3ccc(N4CCCC4)cc3)cn2)c1C [6-[3-endo-({[2-methyl-3-(methyloxy)phenyl]carbonyl}amino)-8-azabicyclo[3.2.1]oct-8-yl]-N-[(4-pyrrolidin-1-ylphenyl)methyl]pyridine-3-carboxamide]
30 | 500 to 999 | COc1ccc([C@H](NC(=O)c2ccc(N3C4CCC3CC(NC(=O)c3cccc(OC)c3C)C4)nc2)C(N)=O)cc1 (stereo partly drawn) [N-{(1S)-2-amino-1-[4-(methyloxy)phenyl]-2-oxoethyl}-6-[3-endo-({[2-methyl-3-(methyloxy)phenyl]carbonyl}amino)-8-azabicyclo[3.2.1]oct-8-yl]pyridine-3-carboxamide]
